The values that follow are results of earlier work, collected in patent US11345964B2, “BCR-ABL truncation mutations” (Quest Diagnostics Investments LLC, priority 2009, dated 2022).

Structures can show the parent of a compound that is named as a salt. Where two headings read alike, the source gives them in different places.

The series has as its system patients with myeloproliferative diseases. To be noted: imatinib therapy.

As for `Cc1ccc(NC(=O)c2ccc(CN3CCN(C)CC3)cc2)cc1Nc1nccc(-c2cccnc2)n1` [imatinib, imatinib mesylate], the “Primary resistance (failure to achieve any hematologic response) rate” value runs as follows: (accelerated phase) 9%; (blast phase) 51%; (chronic phase) 3%. In addition, the “Secondary resistance (hematologic recurrence) rate” value is on record as 32% (accelerated phase), 41% (blast phase) and 22% (chronic phase).
